Measured values published in patent US20230114241A1, “METHODS OF TREATING EPILEPSY USING THE SAME” (Trevena, Inc., priority 2019, published 2023).

How the values were obtained:
[1] = biological target: T1, human sphingosine-1-phosphate receptor 1 (S1P1) (Homo sapiens, UniProt P21453); assay: Inhibition of cAMP production (HTRF cAMP HiRange), S1P1 CHO-K1 cells; format: cell-based
Method in brief: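 Intracellular cAMP changes read by TR-FRET (HTRF HiRange, 1 h room temperature) after 30 min compound exposure at 37 °C. Cells: overnight-plated CHO-K1 stably expressing tagged human S1P1 with EA-β-arrestin2. Responses normalized to fingolimod.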
Target sequence in this assay (P21453 whole entry): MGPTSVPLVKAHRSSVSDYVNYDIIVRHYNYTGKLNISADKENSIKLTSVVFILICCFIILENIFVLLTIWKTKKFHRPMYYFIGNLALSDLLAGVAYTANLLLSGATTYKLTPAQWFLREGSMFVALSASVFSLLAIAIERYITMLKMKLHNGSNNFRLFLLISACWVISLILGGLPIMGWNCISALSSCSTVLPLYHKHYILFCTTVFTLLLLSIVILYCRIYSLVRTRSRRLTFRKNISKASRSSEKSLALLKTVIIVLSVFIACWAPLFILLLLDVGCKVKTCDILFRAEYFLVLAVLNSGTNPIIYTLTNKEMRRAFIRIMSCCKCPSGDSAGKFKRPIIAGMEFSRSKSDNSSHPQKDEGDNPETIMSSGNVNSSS

[2] = biological target: T1, human sphingosine-1-phosphate receptor 1 (S1P1); assay: β-Arrestin2 recruitment assay (PathHunter), S1P1 CHO-K1 cells; format: cell-based
Method in brief: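 Agonist-driven β-arrestin2 recruitment measured by β-galactosidase complementation after 60 min compound exposure at 37 °C and 1 h detection at room temperature. Cells: stable CHO-K1 line expressing tagged human S1P1 with EA-β-arrestin2, plated the night before. Data expressed relative to fingolimod.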
Target sequence in this assay (P21453 whole entry): as above
Target sequence in this assay (P32121 whole entry partner): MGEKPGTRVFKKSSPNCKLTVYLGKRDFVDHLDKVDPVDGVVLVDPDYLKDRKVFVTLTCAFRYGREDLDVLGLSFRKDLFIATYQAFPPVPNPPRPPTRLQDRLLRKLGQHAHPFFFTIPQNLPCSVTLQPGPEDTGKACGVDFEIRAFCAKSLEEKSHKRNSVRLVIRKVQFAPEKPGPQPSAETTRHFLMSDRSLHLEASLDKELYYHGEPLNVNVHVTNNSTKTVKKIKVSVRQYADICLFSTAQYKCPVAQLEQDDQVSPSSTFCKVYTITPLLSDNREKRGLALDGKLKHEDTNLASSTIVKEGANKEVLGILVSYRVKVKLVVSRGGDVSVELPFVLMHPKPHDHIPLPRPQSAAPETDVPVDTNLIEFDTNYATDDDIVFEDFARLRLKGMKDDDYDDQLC

[3] = CHO-K1, inhibition of cAMP production, efficacy normalized to maximum efficacy of fingolimod, read-out: hS1P1 CAMP SPAN
[4] = inhibition of cAMP production, potency, read-out: hS1P1 CAMP pEC50 (converted)
[5] = CHO-K1, β-arrestin2 recruitment, efficacy normalized to maximum efficacy of fingolimod, read-out: hS1P1 B-arrestin2 SPAN
[6] = β-arrestin2 recruitment, potency, read-out: hS1P1 B-arrestin2 pEC50 (converted)
[7] = CHO-K1, efficacy normalized to maximum efficacy of fingolimod, read-out: hS1P1 CAMP SPAN
[8] = inhibition of cAMP production, S1P1, read-out: hS1P1 CAMP pEC50 (converted)
[9] = CHO-K1, efficacy normalized to maximum efficacy of fingolimod, read-out: hS1P1 B-arrestin2 SPAN
[10] = β-arrestin2 recruitment, S1P1, read-out: hS1P1 B-arrestin2 pEC50 (converted)

SMILES | Emax [1, 3] [%] | EC50 [1, 4] [µM] | Emax [2, 5] [%] | EC50 [2, 6] [µM] | Emax [1, 7] [%] | EC50 [1, 8] [µM] | Emax [2, 9] [%] | EC50 [2, 10] [µM] | further results
CCC1(CC)CC(=O)c2cc(-c3nc(-c4ccc5c(c4)nnn5C(C)C)ns3)ccc2O1 [Compound 29, 2,2-diethyl-6-(3-(1-isopropyl-1H-benzo[d][1,2,3]triazol-5-yl)-1,2,4-thiadiazol-5-yl)chroman-4-one] | < 75 | > 0.316 | < 75 | > 10 | – | – | – | – | –
Cc1ccsc1-c1noc(-c2ccc3c(c2)nnn3C2CCCC2)n1 [Compound 46, 1-cyclopentyl-5-[3-(3-methylthiophen-2-yl)-1,2,4-oxadiazol-5-yl]-1H-1,2,3-benzotriazole] | > 75 | < 0.316 | > 75 | < 10 | – | – | – | – | –
CC(C)n1nnc2cc(-c3nc(-c4ccc(Oc5ccccc5)cc4)no3)ccc21 [Compound 15, 5-[3-(4-phenoxyphenyl)-1,2,4-oxadiazol-5-yl]-1-(propan-2-yl)-1H-1,2,3-benzotriazole] | > 75 | > 0.316 | < 75 | > 10 | – | – | – | – | –
CCC1(CC)CC(=O)c2cc(-c3nc(-c4ccnc(NC(C)=O)c4)no3)ccc2O1 [Compound 512, N-(4-(5-(2,2-diethyl-4-oxochroman-6-yl)-1,2,4-oxadiazol-3-yl)pyridin-2-yl)acetamide] | – | – | – | – | > 75 | < 0.316 | < 75 | < 10 | –
CC(C)n1nnc2cc(-c3nsc(-c4ccccc4O)n3)ccc21 [Compound 112, 2-{3-[1-(propan-2-yl)-1H-1,2,3-benzotriazol-5-yl]-1,2,4-thiadiazol-5-yl}phenol] | > 75 | < 0.316 | > 75 | < 10 | – | – | – | – | –
FC(F)(F)Oc1cccc(-c2nc(-c3ccc4c(c3)nnn4C3CCCC3)no2)c1 [Compound 10, 3-(1-cyclopentyl-1H-benzo[d][1,2,3]triazol-5-yl)-5-(3-(trifluoro-methoxy)phenyl)-1,2,4-oxadiazole] | – | – | – | – | – | – | – | – | EC50 [1]: > 0.316 µM; Emax ([1]; CHO-K1, read-out: hS1P1 CAMP SPAN): < 75%; EC50 [2]: > 10 µM; Emax ([2]; CHO-K1, read-out: hS1P1 B-arrestin2 SPAN): < 75%
CC(C)n1ccc2cc(-c3noc(-c4ccccc4F)n3)ccc21 [Compound 387, 5-(2-fluorophenyl)-3-(1-isopropyl-1H-indol-5-yl)-1,2,4-oxadiazole] | – | – | – | – | > 75 | > 0.316 | > 75 | < 10 | –
COc1ccccc1-c1nnc(-c2ccc3c(c2)c(=O)on3C)o1 [Compound 340, 5-[5-(2-methoxyphenyl)-1,3,4-oxadiazol-2-yl]-1-methyl-1,3-dihydro-2,1-benzoxazol-3-one] | < 75 | > 0.316 | < 75 | > 10 | – | – | – | – | –
CC(C)n1ccc2cc(-c3noc(-c4ccccc4Br)n3)ccc21 [Compound 388, 5-(2-bromophenyl)-3-(1-isopropyl-1H-indol-5-yl)-1,2,4-oxadiazole] | – | – | – | – | > 75 | < 0.316 | > 75 | < 10 | –
COc1cnc(-c2nc(-c3ccc4c(c3)nnn4C(C)C)no2)cn1 [Compound 51, 3-(1-isopropyl-1H-benzo[d][1,2,3]triazol-5-yl)-5-(5-methoxypyrazin-2-yl)-1,2,4-oxadiazole] | < 75 | > 0.316 | < 75 | > 10 | – | – | – | – | –
O=C1CCOc2ccc(-c3nc(-c4ccncc4)no3)cc21 [Compound 57, 6-[3-(pyridin-4-yl)-1,2,4-oxadiazol-5-yl]-3,4-dihydro-2H-1-benzopyran-4-one] | < 75 | > 0.316 | < 75 | > 10 | – | – | – | – | –
COc1cccc(F)c1-c1noc(-c2ccc3c(ccn3C(C)C)c2)n1 [Compound 328, 3-(2-fluoro-6-methoxy-phenyl)-5-(1-isopropyl-indol-5-yl)-1,2,4-oxadiazole] | > 75 | > 0.316 | > 75 | < 10 | – | – | – | – | –
CCC1(CC)CC(=O)c2cc(-c3nc(-c4ccc(S(=O)(=O)NC)cc4)no3)ccc2O1 [Compound 266, 4-(5-(2,2-diethyl-4-oxochroman-6-yl)-1,2,4-oxadiazol-3-yl)-N-methylbenzene-sulfonamide] | > 75 | > 0.316 | > 75 | < 10 | – | – | – | – | –
CCC1(CC)CC(=O)c2cc(-c3nc(-c4sccc4OC)no3)ccc2O1 [Compound 604, 2,2-diethyl-6-(3-(3-methoxythiophen-2-yl)-1,2,4-oxadiazol-5-yl)chroman-4-one] | – | – | – | – | > 75 | < 0.316 | > 75 | < 10 | –
CCC1(CC)CC(=O)c2cc(-c3nc(-c4ccnc(C(=O)NC)c4)no3)ccc2O1 [Compound 592, 4-(5-(2,2-diethyl-4-oxochroman-6-yl)-1,2,4-oxadiazol-3-yl)-N-methylpicolinamide] | – | – | – | – | < 75 | > 0.316 | > 75 | > 10 | –
CC(C)n1nnc2cc(-c3nc(-c4ccccc4O)no3)ccc21 [Compound 180, 2-(5-(1-isopropyl-1H-benzo[d][1,2,3]triazol-5-yl)-1,2,4-oxadiazol-3-yl)phenol] | > 75 | > 0.316 | > 75 | > 10 | – | – | – | – | –
COc1cccc(-c2csc(-c3ccc4c(ccn4C(C)C)c3)n2)c1 [Compound 405, 2-(1-isopropylindol-5-yl)-4-(3-methoxy-phenyl)thiazole] | – | – | – | – | < 75 | > 0.316 | < 75 | > 10 | –
CC(C)n1nnc2cc(-c3noc(-c4cccc(COc5ccccc5)c4)n3)ccc21 [Compound 23, 3-(1-isopropyl-1H-benzo[d][1,2,3]triazol-5-yl)-5-(3-(phenoxy-methyl)phenyl)-1,2,4-oxadiazole] | < 75 | > 0.316 | < 75 | > 10 | – | – | – | – | –
CC(C)n1nnc2cc(-c3noc(C4CCCC4)n3)ccc21 [Compound 278, 5-(5-cyclopentyl-1,2,4-oxadiazol-3-yl)-1-(propan-2-yl)-1H-1,2,3-benzotriazole5-(5-cyclopentyl-1,2,4-oxadiazol-3-yl)-1-(propan-2-yl)-1H-1,2,3-benzotriazole] | < 75 | – | < 75 | – | – | – | – | – | –
CCC1(CC)CC(=O)c2cc(-c3nc(-c4cccnc4O)no3)ccc2O1 [Compound 258, 2,2-diethyl-6-(3-(2-hydroxypyridin-3-yl)-1,2,4-oxadiazol-5-yl)chroman-4-one] | < 75 | > 0.316 | < 75 | > 10 | – | – | – | – | –
Cc1ccccc1-c1nc(-c2ccc3c(c2)nnn3C(C)(C)CO)no1 [Compound 609, 2-methyl-2-(5-(5-(o-tolyl)-1,2,4-oxadiazol-3-yl)-1H-benzo[d] [1,2,3]triazol-1-yl)propan-1-ol] | – | – | – | – | < 75 | < 0.316 | < 75 | > 10 | –
CCC1(CC)C/C(=N/O)c2cc(-c3nc(-c4cccnc4)no3)ccc2O1 [Compound 430, N-[(4Z)-2,2-diethyl-6-[3-(pyridin-3-yl)-1,2,4-oxadiazol-5-yl]-3,4-dihydro-2H-1-benzopyran-4-ylidene]hydroxylamine] | – | – | – | – | > 75 | > 0.316 | > 75 | > 10 | –
C=CCn1nnc2cc(-c3noc(-c4ccccc4Br)n3)ccc21 [Compound 42, 3-(1-allyl-1H-benzo[d][1,2,3]triazol-5-yl)-5-(2-bromo-phenyl)-1,2,4-oxadiazole] | > 75 | > 0.316 | > 75 | > 10 | – | – | – | – | –
COc1ccccc1-c1c[nH]c(-c2ccc3c(c2)nnn3C(C)C)c1 [Compound 566, 5-[4-(2-methoxyphenyl)-1H-pyrrol-2-yl]-1-(propan-2-yl)-1H-1,2,3-benzotriazole] | – | – | – | – | < 75 | > 0.316 | < 75 | > 10 | –
N#Cc1cc(-c2nnc(-c3ccc4c(c3)CCC(=O)N4)o2)ccc1NCC1CC1 [Compound 475, 2-[(cyclopropyl-methyl)amino]-5-[5-(2-oxo-1,2,3,4-tetrahydroquinolin-6-yl)-1,3,4-oxadiazol-2-yl]benzonitrile] | – | – | – | – | > 75 | < 0.316 | < 75 | < 10 | –
COc1ccccc1-c1nc(-c2ccc3c(c2)nnn3CC(C)(C)CO)no1 [Compound 525, 3-(5-(5-(2-methoxy-phenyl)-1,2,4-oxadiazol-3-yl)-1H-benzo[d][1,2,3]triazol-1-yl)-2,2-dimethyl-propan-1-ol] | – | – | – | – | > 75 | > 0.316 | > 75 | > 10 | –
CCc1ccccc1-c1nc(-c2ccc3c(c2)nnn3CC(C)(C)CO)no1 [Compound 527, 3-(5-(5-(2-ethylphenyl)-1,2,4-oxadiazol-3-yl)-1H-benzo[d][1,2,3]triazol-1-yl)-2,2-dimethylpropan-1-ol] | – | – | – | – | > 75 | > 0.316 | > 75 | > 10 | –
COc1cc(NC(C)=O)ccc1-c1noc(-c2ccc3nonc3c2)n1 [Compound 533, N-{4-[5-(2,1,3-benzoxadiazol-5-yl)-1,2,4-oxadiazol-3-yl]-3-methoxy-phenyl}acetamide] | – | – | – | – | < 75 | > 0.316 | < 75 | > 10 | –
